Measurements published in ChEMBL document CHEMBL6182943, “Identification of 4'-Thiouridine as an Orally Available Antiviral Agent Targeting Both RdRp and NiRAN Functions of SARS-CoV-2 Nsp12” (J Med Chem, 2025).
pEC50: −log10 of the molar value.

Experiments:
[1] = test system: rhinovirus B14; assay: Antiviral activity against Human rhinovirus B14 infected in human H1-HeLa cells incubated for 72 hrs; format: functional, organism-based; settings: Rhinovirus B
[2] = Selectivity index, ratio of CC50 for cytotoxicity against human H1-HeLa cells to EC50 for antiviral activity against Human rhinovirus B14 infected in human H1-HeLa cells; format: toxicity, cell-based; settings: read-out: Ratio CC50/EC50
[3] = Cytotoxicity against human H1-HeLa cells assessed as reduction in cell viability incubated for 72 hrs; format: toxicity, cell-based
[4] = Selectivity index, ratio of CC50 for cytotoxicity against human Calu-3 cells to EC50 for antiviral activity against SARS-CoV-2 Omicron (hCoV-19/Korea/KDCA447321/2021) infected in human Calu-3 cells assessed as reduction in number of spike-protein expressing cells; format: toxicity, cell-based; settings: read-out: Ratio CC50/EC50
[5] = test system: SARS-CoV-2; assay: (§1) Antiviral activity against SARS-CoV-2 Omicron (hCoV-19/Korea/KDCA447321/2021) infected in human Calu-3 cells assessed as reduction in number of spike-protein expressing cells pre-infected for 30 mins followed by compound addition and measured 48 hrs post-infection by DAPI staining based immunofluorescence analysis relative to control; format: functional, organism-based; settings: Severe acute respiratory syndrome coronavirus 2, Omicron (hCoV-19/Korea/KDCA447321/2021)
[6] = test system: Zaire ebolavirus; assay: Antiviral activity against Zaire Ebola virus infected in HEK293T cells transfected with viral replication protein and Renilla luciferase pre-infected for 4 hrs followed by compound addition and measured after 48 hrs by Dual-luciferase reporter assay; format: functional, organism-based; settings: HEK-293T
[7] = Cytotoxicity against human Huh-7 cells assessed as reduction in cell viability by MTT-based cell viability assay; format: toxicity
[8] = test system: SARS-CoV-2; assay: Antiviral activity against SARS-CoV-2 infected in african green monkey Vero cells assessed as reduction in number of spike-protein expressing cells pre-infected for 30 mins followed by compound addition and measured 48 hrs post-infection by DAPI staining based immunofluorescence analysis; format: functional, organism-based; settings: Severe acute respiratory syndrome coronavirus 2, Vero
[9] = Cytotoxicity against African green monkey Vero cells assessed as reduction in cell viability incubated for 48 hrs by MTT assay; format: toxicity, cell-based; settings: chlorocebus sabaeus
[10] = test system: SARS-CoV-2; assay: as §1, with “Wuhan-like (hCoV-19/Korea/KCDC06/2020)” for “Omicron (hCoV-19/Korea/KDCA447321/2021)”; format: functional, organism-based; settings: Severe acute respiratory syndrome coronavirus 2, Wuhan-like (hCoV-19/Korea/KCDC06/2020)
[11] = Selectivity index, ratio of CC50 for cytotoxicity against HEK293T cells to EC50 for antiviral activity against Zaire Ebola virus infected in HEK293T cells transfected with viral replication protein and Renilla luciferase; format: toxicity, cell-based; settings: human, read-out: Ratio CC50/EC50
[12] = Selectivity index, ratio of CC50 for cytotoxicity against rhesus monkey LLC-MK2 cells to EC50 for antiviral activity against HCoV-NL63 infected in rhesus monkey LLC-MK2 cells assessed as inhibition of virus-induced cytopathic effect; format: toxicity, cell-based; settings: read-out: Ratio CC50/EC50
[13] = Cytotoxicity against human Calu-3 cells assessed as reduction in cell viability incubated for 48 hrs by MTT assay; format: toxicity, cell-based
[14] = test system: SARS-CoV-2; assay: as §1, with “Gamma (hCoV-19/Korea95637/KDCA/2021)” for “Omicron (hCoV-19/Korea/KDCA447321/2021)”; format: functional, organism-based; settings: Severe acute respiratory syndrome coronavirus 2, Gamma (hCoV-19/Korea95637/KDCA/2021)
[15] = Cytotoxicity against HEK293T cells assessed as reduction in cell viability measured after 48 hrs by MTT assay; format: toxicity, cell-based, HEK-293T; settings: human
[16] = test system: Middle East respiratory syndrome-related coronavirus; assay: Antiviral activity against MERS-CoV KOR/KNIH/002_05_2015 infected in human Huh-7 cells assessed as inhibition of virus-induced cytopathic effect measured 2 to 7 days post infection by MTT-based cell viability assay; format: functional, organism-based; settings: KOR/KNIH/002_05_2015, Huh-7
[17] = Selectivity index, ratio of CC50 for cytotoxicity against African green monkey Vero cells to EC50 for antiviral activity against SARS-CoV-2 infected in african green monkey Vero cells assessed as reduction in number of spike-protein expressing cells; format: toxicity, cell-based; settings: read-out: Ratio CC50/EC50
[18] = test system: SARS-CoV-2; assay: as §1, with “Delta (hCoV-19/Korea/KDCA119861/2021)” for “Omicron (hCoV-19/Korea/KDCA447321/2021)”; format: functional, organism-based; settings: Severe acute respiratory syndrome coronavirus 2, Delta (hCoV-19/Korea/KDCA119861/2021)
[19] = Selectivity index, ratio of CC50 for cytotoxicity against human Calu-3 cells to EC50 for antiviral activity against SARS-CoV-2 Gamma (hCoV-19/Korea95637/KDCA/2021) infected in human Calu-3 cells assessed as reduction in number of spike-protein expressing cells; format: toxicity, cell-based; settings: read-out: Ratio CC50/EC50
[20] = Selectivity index, ratio of CC50 for cytotoxicity against human Calu-3 cells to EC50 for antiviral activity against SARS-CoV-2 Wuhan-like (hCoV-19/Korea/KCDC06/2020) infected in human Calu-3 cells assessed as reduction in number of spike-protein expressing cells; format: toxicity, cell-based; settings: read-out: Ratio CC50/EC50
[21] = test system: Human coronavirus NL63; assay: Antiviral activity against HCoV-NL63 infected in LLC-MK2 cells assessed as inhibition of virus-induced cytopathic effect measured 2 to 7 days post infection by MTT-based cell viability assay; format: functional, organism-based
[22] = Selectivity index, ratio of CC50 for cytotoxicity against human Huh-7 cells to EC50 for antiviral activity against MERS-CoV KOR/KNIH/002_05_2015 infected in human Huh-7 cells assessed as inhibition of virus-induced cytopathic effect; format: toxicity, cell-based; settings: read-out: Ratio CC50/EC50
[23] = Selectivity index, ratio of CC50 for cytotoxicity against human Calu-3 cells to EC50 for antiviral activity against SARS-CoV-2 Delta (hCoV-19/Korea/KDCA119861/2021) infected in human Calu-3 cells assessed as reduction in number of spike-protein expressing cells; format: toxicity, cell-based; settings: read-out: Ratio CC50/EC50
[24] = Cytotoxicity against rhesus monkey LLC-MK2 cells assessed as reduction in cell viability by MTT-based cell viability assay; format: toxicity, Macaca mulatta

For `CCOC(=O)/C=C/[C@H](C[C@@H]1CCNC1=O)NC(=O)[C@@H](CC(=O)[C@@H](NC(=O)c1cc(C)on1)C(C)C)Cc1ccc(F)cc1`, the pEC50 [1] was 6.24, the selectivity ratio [2] was > 176 and the CC50 at 72 h [3] was > 100000 nM.

With `CCC(CC)COC(=O)[C@H](C)N[P@](=O)(OC[C@H]1O[C@@](C#N)(c2ccc3c(N)ncnn23)[C@H](O)[C@@H]1O)Oc1ccccc1` the selectivity ratio [4] was > 24.7, the pEC50 [5] was 6.01 and the pEC50 [6] was 6.74. For the same compound, the CC50 [7] was 19600 nM, the pEC50 [8] was 5.32 and the CC50 at 48 h [9] was > 100000 nM. The pEC50 [10] was 6.24, the selectivity ratio [11] was 14.2 and the selectivity ratio [12] was > 702. The CC50 at 48 h [13] was > 100000 nM, the pEC50 [14] was 5.86 and the CC50 at 48 h [15] was 2620 nM. For the same compound, the pEC50 [16] was > 7.38, the selectivity ratio [17] was > 20.7 and the pEC50 [18] was 5.62. For the same compound, the selectivity ratio [19] was > 73.1, the selectivity ratio [20] was > 174 and the pEC50 [21] was 6.85. For the same compound, the selectivity ratio [22] was > 348, the selectivity ratio [23] was > 41.6 and the CC50 [24] was > 100000 nM.
